This note sets out measurements from PMC7656562 (Journal of medicinal chemistry, 2019).

Data set [1] has as its target T1, hCB1 (Homo sapiens, UniProt P21554). The experiment in a line: cell-based.
The conditions of data set [2]: rat, 1 mg/kg PO.
Data set [3] addresses T1, hCB1. The following applies: calcium assay, basal signaling.
For data set [4] the following is noted: mouse, 0.3 mg/kg PO.
The subject of data set [5] is SafetyScreen44 Panel targets.
The test system of data set [6] is alcohol-induced liver steatosis. In words: Alcohol induced hepatic steatosis study. The settings on record: female C57BL6 mice on ethanol diet; 0.03, 0.1, 0.3 mg/kg once daily oral gavage, last 2 weeks; effect at the two higher doses; p < 0.05 versus ethanol + vehicle. In kind it is in vivo, mouse.
For data set [7], the target named is T1, hCB1. The following applies: ratio Ki hCB2/Ki hCB1.

Read-outs that look alike come from different tables or passages of the source. Some results are limits rather than exact numbers.

T1 sequence (P21554 whole entry): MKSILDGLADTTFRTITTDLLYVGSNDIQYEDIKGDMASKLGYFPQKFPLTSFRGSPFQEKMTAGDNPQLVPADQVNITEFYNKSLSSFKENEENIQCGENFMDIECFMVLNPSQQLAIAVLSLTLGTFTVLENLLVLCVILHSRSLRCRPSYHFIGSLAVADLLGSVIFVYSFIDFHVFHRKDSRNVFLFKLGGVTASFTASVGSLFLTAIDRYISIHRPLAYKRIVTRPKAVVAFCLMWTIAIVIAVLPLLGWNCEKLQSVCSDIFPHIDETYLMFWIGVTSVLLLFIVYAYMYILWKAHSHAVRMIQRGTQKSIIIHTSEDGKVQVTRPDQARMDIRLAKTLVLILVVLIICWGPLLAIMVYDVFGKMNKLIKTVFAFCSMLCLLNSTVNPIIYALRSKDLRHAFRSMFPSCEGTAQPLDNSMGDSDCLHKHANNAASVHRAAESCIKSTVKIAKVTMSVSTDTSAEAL

In the case of `CCCN(CC(F)(F)F)C(=O)NC1CCN(c2ncnc3c2nc(-c2ccccc2Cl)n3-c2ccc(Cl)cc2)CC1` [Compound 12, 1-{1-[8-(2-Chlorophenyl)-9-(4-chlorophenyl)-9H-purin-6-yl]-piperidin-4-yl}-3-propyl-3-(2,2,2-trifluoroethyl)urea], the Kb at hCB1 [1] came to 1.2 ± 0.6 nM.

`CC(C)(C)CNC(=O)NC1CCN(c2ncnc3c2nc(-c2ccccc2Cl)n3-c2ccc(Cl)cc2)CC1` [Compound 14, 1-{1-[8-(2-Chlorophenyl)-9-(4-chlorophenyl)-9H-purin-6-yl]-piperidin-4-yl}-3-(2,2-dimethylpropyl)urea]: the Kb on hCB1 [1] worked out at 270 ± 130 nM.

Regarding `O=C(NC1CCN(c2ncnc3c2nc(-c2ccccc2Cl)n3-c2ccc(Cl)cc2)CC1)N1CCCC1` [Compound 16, N-{1-[8-(2-Chlorophenyl)-9-(4-chlorophenyl)-9H-purin-6-yl]-piperidin-4-yl}pyrrolidine-1-carboxamide], on hCB1 [1], the Kb came to 190 ± 110 nM.

At hCB1 [1], `O=C(NC1CCN(c2ncnc3c2nc(-c2ccccc2Cl)n3-c2ccc(Cl)cc2)CC1)N1CCCCC1` [Compound 17, N-{1-[8-(2-Chlorophenyl)-9-(4-chlorophenyl)-9H-purin-6-yl]-piperidin-4-yl}piperidine-1-carboxamide] had a Kb of 7 ± 4 nM.

Consider `O=C(NC1CCN(c2ncnc3c2nc(-c2ccccc2Cl)n3-c2ccc(Cl)cc2)CC1)N1CCOCC1` [Compound 18, N-{1-[8-(2-Chlorophenyl)-9-(4-chlorophenyl)-9H-purin-6-yl]-piperidin-4-yl}morpholine-4-carboxamide], for which the Kb at hCB1 [1] stood at 340 ± 60 nM.

On hCB1 [1], `O=C(NC1CCN(c2ncnc3c2nc(-c2ccccc2Cl)n3-c2ccc(Cl)cc2)CC1)NC1(C(F)(F)F)CCCC1` [Compound 20, 1-{1-[8-(2-Chlorophenyl)-9-(4-chlorophenyl)-9H-purin-6-yl]-piperidin-4-yl}-3-[1-(trifluoromethyl)cyclopentyl]urea] had a Kb of 12 ± 8 nM.

As for `O=C(NC1CCCCC1)NC1CCN(c2ncnc3c2nc(-c2ccccc2Cl)n3-c2ccc(Cl)cc2)CC1` [Compound 21, 3-{1-[8-(2-Chlorophenyl)-9-(4-chlorophenyl)-9H-purin-6-yl]-piperidin-4-yl}-1-cyclohexylurea], at hCB1 [1], the Kb was determined as 35 ± 10 nM.

Regarding `CC1(NC(=O)NC2CCN(c3ncnc4c3nc(-c3ccccc3Cl)n4-c3ccc(Cl)cc3)CC2)CCC(F)(F)CC1` [Compound 23, 3-{1-[8-(2-Chlorophenyl)-9-(4-chlorophenyl)-9H-purin-6-yl]-piperidin-4-yl}-1-(4,4-difluoro-1-methylcyclohexyl)urea], the Kb on hCB1 [1] is 0.4 ± 0.3 nM.

For `O=C(NCC1CCCCC1)NC1CCN(c2ncnc3c2nc(-c2ccccc2Cl)n3-c2ccc(Cl)cc2)CC1` [Compound 25, 3-{1-[8-(2-Chlorophenyl)-9-(4-chlorophenyl)-9H-purin-6-yl]-piperidin-4-yl}-1-(cyclohexylmethyl)urea], the Kb at hCB1 [1] worked out at 5 ± 3 nM.

`O=C(NCC1CCC(F)(F)CC1)NC1CCN(c2ncnc3c2nc(-c2ccccc2Cl)n3-c2ccc(Cl)cc2)CC1` [Compound 26, 3-{1-[8-(2-Chlorophenyl)-9-(4-chlorophenyl)-9H-purin-6-yl]-piperidin-4-yl}-1-[(4,4-difluorocyclohexyl)methyl]urea] returned a Kb on hCB1 [1] of 28 ± 15 nM.

Turning to `CN1CCC(CNC(=O)NC2CCN(c3ncnc4c3nc(-c3ccccc3Cl)n4-c3ccc(Cl)cc3)CC2)CC1` [Compound 27, 3-{1-[8-(2-Chlorophenyl)-9-(4-chlorophenyl)-9H-purin-6-yl]-piperidin-4-yl}-1-[(1-methylpiperidin-4-yl)methyl]urea], the Kb on hCB1 [1] came to 25000 ± 12000 nM.

`O=C(Nc1ccccn1)NC1CCN(c2ncnc3c2nc(-c2ccccc2Cl)n3-c2ccc(Cl)cc2)CC1` [Compound 31, 3-{1-[8-(2-Chlorophenyl)-9-(4-chlorophenyl)-9H-purin-6-yl]-piperidin-4-yl}-1-(pyridin-2-yl)urea] registered a Kb on hCB1 [1] of 150 ± 50 nM.

For `O=C(Nc1ccc(F)cc1F)NC1CCN(c2ncnc3c2nc(-c2ccccc2Cl)n3-c2ccc(Cl)cc2)CC1` [Compound 33, 3-{1-[8-(2-Chlorophenyl)-9-(4-chlorophenyl)-9H-purin-6-yl]-piperidin-4-yl}-1-(2,4-difluorophenyl)urea], the “plasma HL” value in data set [2] came out at 12 h. Further, the “neutral antagonist or inverse agonist of hCB1” value at hCB1 [3] is on record as “inverse agonists”. Moreover, in data set [4], the “plasma HL” value worked out at 12 h and the “time of plasma max. conc.” value stood at 1 h.

Turning to `O=C(Nc1ccc(F)c(F)c1)NC1CCN(c2ncnc3c2nc(-c2ccccc2Cl)n3-c2ccc(Cl)cc2)CC1` [Compound 34, 3-{1-[8-(2-Chlorophenyl)-9-(4-chlorophenyl)-9H-purin-6-yl]-piperidin-4-yl}-1-(3,4-difluorophenyl)urea], the Kb at hCB1 [1] is 290 ± 80 nM.

In turn, `O=C(Nc1cccnc1C(F)(F)F)NC1CCN(c2ncnc3c2nc(-c2ccccc2Cl)n3-c2ccc(Cl)cc2)CC1` [Compound 36, 3-{1-[8-(2-Chlorophenyl)-9-(4-chlorophenyl)-9H-purin-6-yl]-piperidin-4-yl}-1-[2-(trifluoromethyl)pyridin-3-yl]urea] registered a Kb at hCB1 [1] of 160 ± 60 nM.

Take `O=C(Nc1ccc(OC(F)F)nc1)NC1CCN(c2ncnc3c2nc(-c2ccccc2Cl)n3-c2ccc(Cl)cc2)CC1` [Compound 38, 3-{1-[8-(2-Chlorophenyl)-9-(4-chlorophenyl)-9H-purin-6-yl]-piperidin-4-yl}-1-[6-(difluoromethoxy)pyridin-3-yl]urea]: the “neutral antagonist or inverse agonist of hCB1” value on hCB1 [3] is reported as “inverse agonists”. Also, the “plasma HL” value in data set [4] is 11 h. Further, the “EC50 or IC50 on all targets tested” value in data set [5] is above 10000 nM. In data set [6], the “hepatic lipid droplets (Oil Red O staining, ImageJ quantification)” value is on record as “statistically significant reduction of liver steatosis”.

In turn, `O=C(Nc1cc(C(F)(F)F)[nH]n1)NC1CCN(c2ncnc3c2nc(-c2ccccc2Cl)n3-c2ccc(Cl)cc2)CC1` [Compound 39, 1-{1-[8-(2-Chlorophenyl)-9-(4-chlorophenyl)-9H-purin-6-yl]-piperidin-4-yl}-3-[5-(trifluoromethyl)-1H-pyrazol-3-yl]urea] yielded a Kb at hCB1 [1] of 270 ± 60 nM.

Consider `Cn1cc(NC(=O)NC2CCN(c3ncnc4c3nc(-c3ccccc3Cl)n4-c3ccc(Cl)cc3)CC2)cn1` [Compound 40, 1-{1-[8-(2-Chlorophenyl)-9-(4-chlorophenyl)-9H-purin-6-yl]-piperidin-4-yl}-3-(1-methyl-1H-pyrazol-4-yl)urea], for which the Kb at hCB1 [1] was found to be 28000 ± 8000 nM.

As for `O=C(NCC1CCCCC1)NC1CCN(c2ncnc3c2nc(-c2ccccc2Cl)n3-c2ccc(C(F)(F)F)nc2)CC1` [Compound 42, 3-{1-[8-(2-Chlorophenyl)-9-[6-(trifluoromethyl)pyridin-3-yl]-9H-purin-6-yl]piperidin-4-yl}-1-(cyclohexylmethyl)urea], the Kb at hCB1 [1] worked out at 76 ± 34 nM.

With `O=C(Nc1ccccc1F)NC1CCN(c2ncnc3c2nc(-c2ccccc2Cl)n3-c2ccc(F)cc2)CC1` [Compound 44, 3-{1-[8-(2-Chlorophenyl)-9-(4-fluorophenyl)-9H-purin-6-yl]-piperidin-4-yl}-1-(2-fluorophenyl)urea], the Kb on hCB1 [1] stood at 3800 ± 1500 nM.

As for `CC1(NC(=O)NC2CCCCC2)CCN(c2ncnc3c2nc(-c2ccccc2Cl)n3-c2ccc(Cl)cc2)CC1` [Compound 47, 3-{1-[8-(2-Chlorophenyl)-9-(4-chlorophenyl)-9H-purin-6-yl]-4-methylpiperidin-4-yl}-1-cyclohexylurea], the Kb at hCB1 [1] was 7 ± 5 nM. Further, at hCB1 [7], the “Selectivity Ki CB2/CB1” value is on record as above 769.

Compound `CC1(NC(=O)NC2CCC(F)(F)CC2)CCN(c2ncnc3c2nc(-c2ccccc2Cl)n3-c2ccc(Cl)cc2)CC1` [Compound 48, 3-{1-[8-(2-Chlorophenyl)-9-(4-chlorophenyl)-9H-purin-6-yl]-4-methylpiperidin-4-yl}-1-(4,4-difluorocyclohexyl)urea] had a Kb on hCB1 [1] of 2 ± 1 nM.

On to `CC1(NC(=O)NCc2ccccc2F)CCN(c2ncnc3c2nc(-c2ccccc2Cl)n3-c2ccc(Cl)cc2)CC1` [Compound 49, 3-{1-[8-(2-Chlorophenyl)-9-(4-chlorophenyl)-9H-purin-6-yl]-4-methylpiperidin-4-yl}-1-[(2-fluorophenyl)methyl]urea], for which the Kb at hCB1 [1] came out at 14 ± 7 nM.

The compound `CC1(NC(=O)Nc2ccccc2F)CCN(c2ncnc3c2nc(-c2ccccc2Cl)n3-c2ccc(Cl)cc2)CC1` [Compound 50, 3-{1-[8-(2-Chlorophenyl)-9-(4-chlorophenyl)-9H-purin-6-yl]-4-methylpiperidin-4-yl}-1-(2-fluorophenyl)urea] had a Kb on hCB1 [1] of 1.6 ± 1.1 nM.

Turning to `CC1(NC(=O)Nc2ccc(F)cc2F)CCN(c2ncnc3c2nc(-c2ccccc2Cl)n3-c2ccc(Cl)cc2)CC1` [Compound 51, 3-{1-[8-(2-Chlorophenyl)-9-(4-chlorophenyl)-9H-purin-6-yl]-4-methylpiperidin-4-yl}-1-(2,4-difluorophenyl)urea], the Kb on hCB1 [1] turned out to be 9 ± 4 nM.

The compound `CC1(NC(=O)Nc2ccc(OC(F)F)nc2)CCN(c2ncnc3c2nc(-c2ccccc2Cl)n3-c2ccc(Cl)cc2)CC1` [Compound 52, 3-{1-[8-(2-Chlorophenyl)-9-(4-chlorophenyl)-9H-purin-6-yl]-4-methylpiperidin-4-yl}-1-[6-(difluoromethoxy)pyridin-3-yl]urea] gave a Kb at hCB1 [1] of 46 ± 23 nM.

As for `CC1(NS(=O)(=O)NC2CCCCC2)CCN(c2ncnc3c2nc(-c2ccccc2Cl)n3-c2ccc(Cl)cc2)CC1` [Compound 54, N-Cyclohexyl({1-[8-(2-chlorophenyl)-9-(4-chlorophenyl)-9H-purin-6-yl]-4-methylpiperidin-4-yl}amino)sulfonamide], the Kb on hCB1 [1] amounted to 17 ± 3 nM.
